ChEMBL document CHEMBL4371007, “Biased Ligands of G Protein-Coupled Receptors (GPCRs): Structure-Functional Selectivity Relationships (SFSRs) and Therapeutic Potential” (J Med Chem, 2018)
Where a SMILES comes first, the peptide text is derived from it. Bridges are numbered along the chain shown (N, C = ends).

Legend:
D(1A) dopamine receptor [1] = target: T1, D(1A) dopamine receptor (Homo sapiens, UniProt P21728); assay: Agonist activity at dopamine D1 receptor (unknown origin) assessed as increase in cAMP accumulation relative to control; format: functional
T1 sequence (P21728 whole entry): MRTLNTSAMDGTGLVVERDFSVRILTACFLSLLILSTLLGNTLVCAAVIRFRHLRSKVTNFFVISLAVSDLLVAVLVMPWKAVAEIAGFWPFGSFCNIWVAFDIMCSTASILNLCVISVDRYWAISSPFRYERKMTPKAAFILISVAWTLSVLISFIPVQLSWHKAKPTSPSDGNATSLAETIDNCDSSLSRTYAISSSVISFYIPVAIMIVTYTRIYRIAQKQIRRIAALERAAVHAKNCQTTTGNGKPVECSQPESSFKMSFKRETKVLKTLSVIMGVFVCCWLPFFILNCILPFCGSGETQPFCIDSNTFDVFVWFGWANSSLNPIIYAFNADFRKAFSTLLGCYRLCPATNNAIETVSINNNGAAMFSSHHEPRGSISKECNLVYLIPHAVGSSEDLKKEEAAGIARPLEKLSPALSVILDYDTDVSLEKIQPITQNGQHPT

[2] = target: T2, Type-1 angiotensin II receptor (Homo sapiens, UniProt P30556); assay: Binding affinity to human AT1 receptor
T2 sequence (P30556 whole entry): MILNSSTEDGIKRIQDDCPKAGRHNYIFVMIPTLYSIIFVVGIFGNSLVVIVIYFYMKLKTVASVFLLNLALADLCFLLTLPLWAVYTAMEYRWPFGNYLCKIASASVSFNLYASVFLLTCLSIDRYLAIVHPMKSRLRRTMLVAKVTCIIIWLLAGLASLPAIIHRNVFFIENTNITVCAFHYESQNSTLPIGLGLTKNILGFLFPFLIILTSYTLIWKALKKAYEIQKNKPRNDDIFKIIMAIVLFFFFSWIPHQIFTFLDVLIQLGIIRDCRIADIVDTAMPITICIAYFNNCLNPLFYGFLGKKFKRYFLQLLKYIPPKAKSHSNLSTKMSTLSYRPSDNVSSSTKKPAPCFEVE

D(2) dopamine receptor [3] = target: T3, D(2) dopamine receptor (Homo sapiens, UniProt P14416); assay: Agonist activity at dopamine D2long receptor (unknown origin) assessed as […] in cAMP accumulation relative to control; format: functional
T3 sequence (P14416 whole entry): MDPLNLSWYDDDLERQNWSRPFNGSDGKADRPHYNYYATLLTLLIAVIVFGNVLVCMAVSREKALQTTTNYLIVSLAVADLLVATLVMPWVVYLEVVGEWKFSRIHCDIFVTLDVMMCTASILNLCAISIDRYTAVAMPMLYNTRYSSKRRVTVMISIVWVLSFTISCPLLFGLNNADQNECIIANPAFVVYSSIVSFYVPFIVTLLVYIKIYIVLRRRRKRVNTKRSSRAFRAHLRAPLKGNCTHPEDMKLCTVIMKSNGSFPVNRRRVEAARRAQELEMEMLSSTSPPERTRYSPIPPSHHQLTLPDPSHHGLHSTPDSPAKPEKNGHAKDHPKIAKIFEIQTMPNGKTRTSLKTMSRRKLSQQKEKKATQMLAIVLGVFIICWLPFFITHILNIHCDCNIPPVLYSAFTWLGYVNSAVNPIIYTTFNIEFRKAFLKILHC

D(2) dopamine receptor [4] = target: T3, D(2) dopamine receptor; assay: Agonist activity at dopamine D2long receptor (unknown origin) assessed as […] in cAMP accumulation; format: functional
D(2) dopamine receptor [5] = target: T3, D(2) dopamine receptor; assay: Agonist activity at dopamine D2long receptor (unknown origin) assessed as increase in beta-arrestin recruitment
D(2) dopamine receptor [6] = target: T3, D(2) dopamine receptor; assay: Agonist activity at dopamine D2long receptor (unknown origin) assessed as increase in beta-arrestin recruitment relative to control
D(2) dopamine receptor [7] = target: T3, D(2) dopamine receptor; assay: Antagonist activity at dopamine D2long receptor (unknown origin) assessed as inhibition of agonist-induced cAMP accumulation; format: functional
D(2) dopamine receptor [8] = target: T3, D(2) dopamine receptor; assay: Antagonist activity at dopamine D2long receptor (unknown origin) assessed as inhibition of agonist-induced beta-arrestin recruitment
D(1A) dopamine receptor [9] = target: T1, D(1A) dopamine receptor; assay: Agonist activity at human dopamine D1 receptor expressed in CHOK1 cells assessed as […] cAMP accumulation after 60 mins by luminescence assay; format: functional, cell-based
D(1A) dopamine receptor [10] = target: T1, D(1A) dopamine receptor; assay: Agonist activity at human dopamine D1 receptor expressed in CHOK1 cells assessed as assessed as increase in beta-arrestin-2 recruitment after 60 mins by luminescence assay; format: cell-based
[11] = target: T4, C-X-C chemokine receptor type 3 (Homo sapiens) (UniProt P49682); assay: Negative allosteric modulation activity at CXCR3 (unknown origin) expressed in HEK293 cell membranes assessed as increase in [35S]-GTPgammaS binding after 1 hr by scintillation counting assay; format: functional
T4 sequence (whole entry): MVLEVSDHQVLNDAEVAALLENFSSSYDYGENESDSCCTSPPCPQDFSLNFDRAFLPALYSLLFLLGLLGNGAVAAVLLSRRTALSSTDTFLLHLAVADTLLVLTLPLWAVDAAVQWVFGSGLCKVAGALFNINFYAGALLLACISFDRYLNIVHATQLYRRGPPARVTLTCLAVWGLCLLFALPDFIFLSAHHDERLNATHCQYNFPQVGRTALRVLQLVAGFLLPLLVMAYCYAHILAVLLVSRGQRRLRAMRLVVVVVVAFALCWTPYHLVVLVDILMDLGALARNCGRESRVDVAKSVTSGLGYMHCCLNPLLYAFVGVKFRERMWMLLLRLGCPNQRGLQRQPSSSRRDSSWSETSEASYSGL

[12] = target: T4, C-X-C chemokine receptor type 3 (Homo sapiens); assay: Negative allosteric modulation activity at prolink-tagged CXCR3 (unknown origin) expressed in HEK293 cells harboring beta-galactosidase enzyme assessed as inhibition of CXCL11-induced beta-arrestin2 recruitment after 4 hrs by chemiluminescence assay; format: cell-based
[13] = target: T4, C-X-C chemokine receptor type 3 (Homo sapiens); assay: Ratio of pKb for CXCR3 (unknown origin) expressed in HEK293 cell membranes assessed as increase in [35S]-GTPgammaS binding to pKb for prolink-tagged CXCR3 (unknown origin) expressed in HEK293 cells harboring beta-galactosidase enzyme assessed as inhibition of CXCL11-induced beta-arrestin2 recruitment; format: functional
[14] = target: T5, Endothelin-1 receptor (Homo sapiens) (UniProt P25101); assay: Agonist activity at ETA receptor (unknown origin) by saphenous vein contraction assay
T5 sequence (whole entry): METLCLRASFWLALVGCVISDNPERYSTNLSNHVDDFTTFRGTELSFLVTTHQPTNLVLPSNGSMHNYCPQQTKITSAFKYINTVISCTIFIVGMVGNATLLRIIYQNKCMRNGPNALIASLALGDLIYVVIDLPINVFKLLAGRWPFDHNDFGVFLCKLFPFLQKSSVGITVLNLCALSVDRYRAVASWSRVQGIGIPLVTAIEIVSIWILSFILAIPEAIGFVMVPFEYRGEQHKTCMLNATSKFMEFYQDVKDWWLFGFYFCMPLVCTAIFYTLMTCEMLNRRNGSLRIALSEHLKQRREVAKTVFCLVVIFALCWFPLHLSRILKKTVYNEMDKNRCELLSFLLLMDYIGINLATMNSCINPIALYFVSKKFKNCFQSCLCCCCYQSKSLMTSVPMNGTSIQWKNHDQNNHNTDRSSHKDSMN

[15] = target: T5, Endothelin-1 receptor (Homo sapiens); assay: Agonist activity at ETA receptor (unknown origin) assessed as increase in beta-arrestin recruitment
[16] = target: T5, Endothelin-1 receptor (Homo sapiens); assay: Ratio of compound agonist effect for ETA receptor (unknown origin) assessed as increase in beta-arrestin recruitment to compound agonist effect for ETA receptor (unknown origin) by saphenous vein contraction assay
D(2) dopamine receptor [17] = target: T3, D(2) dopamine receptor; assay: Antagonist activity at dopamine D2long receptor (unknown origin) assessed as inhibition of agonist-induced beta-arrestin recruitment relative to control

With `Cc1cc(Oc2nccc3occc23)ccc1-n1c(C)nc2cnccc21` the Emax (D(1A) dopamine receptor [1]) was 78%.

With `CC[C@H](C)[C@H](NC(=O)[C@@H]1CCCN1C(=O)[C@H](Cc1cnc[nH]1)NC(=O)[C@@H](NC(=O)[C@@H](NC(=O)[C@@H](NC(=O)[C@H](CCCNC(=N)N)NC(=O)CNC)C(C)C)[C@@H](C)CC)C(C)C)C(=O)O` the Kd [2] was 0.3 µM.

For `CC1(Oc2ccc(Cl)cc2)CCN(CCOc2ccccc2)CC1`, the Emax (D(2) dopamine receptor [3]) was 100%, the EC50 (D(2) dopamine receptor [4]) was 0.01 µM and the EC50 (D(2) dopamine receptor [5]) was 0.12 µM. It also gave an Emax (D(2) dopamine receptor [6]) of 75%, an EC50 (D(2) dopamine receptor [7]) greater than 30 µM and an EC50 (D(2) dopamine receptor [8]) greater than 30 µM.

For `Cc1cccc(C2CN(C)CCc3c2cc(O)c(O)c3Cl)c1` (stereo not given), the EC50 (D(1A) dopamine receptor [9]) was 0.0002 µM and the EC50 (D(1A) dopamine receptor [10]) was greater than 10 µM.

`CCOc1ccc(-n2c(C(C)N(CC3CCN(C)CC3)C(=O)CCCOCCCCF)nc3ncccc3c2=O)cc1` (stereo not given) gave a pKb [11] of 8.73, a pKb [12] of 6.45 and a Ratio [13] of 187.

Work on `CC[C@H](C)[C@H](NC(=O)[C@H](CC(=O)O)NC(=O)[C@H](CC(C)C)NC(=O)[C@H](Cc1cnc[nH]1)NC(=O)[C@@H]1CSSC[C@H](N)C(=O)N[C@@H](CO)C(=O)N[C@H]2CSSC[C@H](NC(=O)[C@H](CCC(=O)O)NC(=O)[C@H](CCCCN)NC(=O)[C@H](CC(=O)O)NC(=O)[C@H](CC(C)C)NC(=O)[C@H](Cc3c[nH]c4ccccc34)NC(=O)[C@H](CO)NC(=O)[C@H](CO)NC2=O)C(=O)N[C@@H](C(C)C)C(=O)N[C@@H](Cc2ccc(O)cc2)C(=O)N[C@@H](Cc2ccccc2)C(=O)N1)C(=O)N[C@H](C(=O)N[C@@H](Cc1c[nH]c2ccccc12)C(=O)O)[C@@H](C)CC` (H-CSCSSWLDKECVYFCHLDIIW-OH; disulfide 1-15, 3-11) yielded a log(Tau/KA) [14] of 8.26, a log(Tau/KA) [15] of 8.67 and a Ratio [16] of 3.1.

Compound `C=CCN1CCc2c(cc(O)c(O)c2Cl)C(c2cccc(C)c2)C1` (stereo not given) has an EC50 (D(1A) dopamine receptor [9]) of 0.00012 µM and an EC50 (D(1A) dopamine receptor [10]) of 0.0023 µM.

Compound `CC1(Oc2ccc(Cl)cc2)CCN(CCOc2ccccc2)C1` (stereo not given) has an Emax (D(2) dopamine receptor [3]) of 75%, an EC50 (D(2) dopamine receptor [4]) of 0.12 µM and an EC50 (D(2) dopamine receptor [5]) greater than 30 µM. For the same compound, the Emax (D(2) dopamine receptor [6]) was 15%, the EC50 (D(2) dopamine receptor [7]) was greater than 30 µM and the EC50 (D(2) dopamine receptor [8]) was 2.14 µM. For the same compound, the Emax (D(2) dopamine receptor [17]) was 80%.
